Type in all cases: cell-based
For test [1], the system named is AsPC-1 (homozygous mutant KRAS G12D human pancreatic cell line). Description: KRAS 3D-Cell Proliferation Assay, AsPC-1 (Example 503). Particulars: Homo sapiens, ASPC1, 168 h, AsPC-1 3D culture, 7 days, CellTiter-Glo 3D; read-out: Prolif AsPC-1 3D ATP IC50. The essentials: (§1)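 Luminescent ATP readout (CellTiter-Glo 3D, with mechanical mixing) measures growth of cells cultured in 3D after a 7-day compound exposure at 37° C. Percent inhibition is referenced to vehicle (DMSO) and 1 μM staurosporine controls, and IC50 comes from a four-parameter Hill fit.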

Test [2] concerns PC-9 (KRAS wild type human lung adenocarcinoma cell line). Description: KRAS 3D-Cell Proliferation Assay, PC-9 (Example 503). Particulars: 168 h, PC-9 3D culture, 7 days, CellTiter-Glo 3D, read-out: Prolif PC9 3D ATP IC50. The method, then:
Example 503: KRAS 3D-Cell Proliferation Assays. Cellular potencies of compounds are assessed by evaluating inhibition of proliferation in 3D cultures of homozygous mutant KRAS G12D human pancreatic cell lines (AsPC-1 and HPAC) as compared to a KRAS wild type human lung adenocarcinoma cell line (PC-9 and/or H1975). Cells are seeded into 384-well black round-bottom, ultra-low attachment assay plates in 50 uL cell growth medium (RPMI-1640 with 10% fetal bovine serum and 2 mM L-glutamine). After overnight incubation at 37° C. and 5% CO2, compounds solubilized in DMSO are added as dilution series to the wells in a total volume of 150 nL (0.3% DMSO final). The cells are incubated for 7 days at 37° C. and 5% CO2. Cell proliferation is quantitated by addition of 40 uL/well of CellTiter-GloÒ 3D (Promega), and the well contents are mixed 20× at high speed using liquid handling automation workstation (Bravo with 384-well head) and centrifuged at 1500 rpm for 2 minutes to eliminate bubbles. This reagent in combination with mechanical disruption releases the cellular ATP to promote activity in a luciferase-based enzyme/substrate chemiluminescent detection system. After a 30-minute incubation under ambient conditions with shaking and an additional 10 minutes without shaking, the luminescence is read on a plate reader (e.g., EnVision [PerkinElmer]). The results are normalized to percent inhibition based on the following control samples: DMSO (0% inhibition) and 1 μM staurosporine (100% inhibition). The normalized luminescence results are plotted against compound concentration, and the data are fit to a 4-parameter Hill equation to determine the IC50 values.
(In general: In ATP-based viability assays light output follows the ATP content of the culture.)

In test [3] the test system is H1975 (KRAS wild type human lung adenocarcinoma cell line). Description: KRAS 3D-Cell Proliferation Assay, H1975 (Example 503). The following applies: Homo sapiens, NCI-H1975, 168 h, H1975 3D culture, 7 days, CellTiter-Glo 3D; read-out: Prolif H1975 3D ATP IC50. The essentials:
as §1

In test [4] the test system is HPAC (homozygous mutant KRAS G12D human pancreatic cell line). The experiment in a line: KRAS 3D-Cell Proliferation Assay, HPAC (Example 503). Particulars: Homo sapiens, HPAC, 168 h, HPAC 3D culture, 7 days, CellTiter-Glo 3D; read-out: Prolif HPAC 3D ATP IC50. The procedure, abridged: as §1

What is called IC50 is the concentration at which inhibition is half-maximal.

On to `C[C@@H]1Oc2nc(-c3nc(N)c(F)cc3C(F)(F)F)c(F)c3nc(OC[C@@]45CCCN4C[C@H](F)C5)nc(c23)N2C[C@H]3CC[C@H](N3)[C@@H]12` [Compound 84, 3-Fluoro-6-((5S,5aS,6S,9R)-1-fluoro-12-(((2R,7aS)-2-fluorotetrahydro-1H-pyrrolizin-7a(5H)-yl)methoxy)-5-methyl-5a,6,7,8,9,10-hexahydro-5H-4-oxa-3,10a,11,13,14-pentaaza-6,9-methanonaphtho[1,8-ab]heptalen-2-yl)-5-(trifluoromethyl)pyridin-2-amine], for which the IC50 is 1.16 µM in test [1] and ≥ 20 µM in test [2].

For `Cn1ncc2ccc(F)c(-c3nc4c5c(nc(OC[C@@]67CCCN6C[C@H](F)C7)nc5c3F)N3C[C@H]5CC[C@H](N5)[C@H]3CO4)c21` [Compound 4, (5aS,6S,9R)-1-fluoro-2-(6-fluoro-1-methyl-1H-indazol-7-yl)-12-(((2R,7aS)-2-fluorotetrahydro-1H-pyrrolizin-7a(5H)-yl)methoxy)-5a,6,7,8,9,10-hexahydro-5H-4-oxa-3,10a,11,13,14-pentaaza-6,9-methanonaphtho[1,8-ab]heptalene], the results for the IC50 in test [1] and in test [2] were 9.75 µM and 13.3 µM, respectively.

In the case of `Cc1ccnc(-c2nc3c4c(nc(OC[C@]56CCN5CC(F)(F)C6)nc4c2F)N2C[C@H]4CC[C@H](N4)[C@H]2[C@H](C)O3)c1C(F)(F)F` [Compound 88, (5S,5aS,6S,9R)-12-(((R)-3,3-Difluoro-1-azabicyclo[3.2.0]heptan-5-yl)methoxy)-1-fluoro-5-methyl-2-(4-methyl-3-(trifluoromethyl)pyridin-2-yl)-5a,6,7,8,9,10-hexahydro-5H-4-oxa-3,10a,11,13,14-pentaaza-6,9-methanonaphtho[1,8-ab]heptalene], the half-maximal inhibitory concentration (IC50) in test [1] and in test [2] was ≥ 20 µM throughout.

Turning to `Oc1cc(-c2nc3c4c(nc(OC[C@@]56CCCN5C[C@H](F)C6)nc4c2F)N2C[C@H]4CC[C@H](N4)[C@H]2CO3)c2c(F)cccc2c1` [Compound 1, 5-Fluoro-4-((5aS,6S,9R)-1-fluoro-12-(((2R,7aS)-2-fluorotetrahydro-1H-pyrrolizin-7a(5H)-yl)methoxy)-5a,6,7,8,9,10-hexahydro-5H-4-oxa-3,10a,11,13,14-pentaaza-6,9-methanonaphtho[1,8-ab]heptalen-2-yl)naphthalen-2-ol], the IC50 in test [1] worked out at 0.226 µM; in test [2] it was 16.9 µM.

As to `Cc1cc(-c2nc3c4c(nc(OC[C@@]56CCCN5C[C@H](F)C6)nc4c2F)N2C[C@H]4CC[C@H](N4)[C@H]2[C@H](C)O3)cc(N)c1F` [Compound 13, 2-fluoro-5-((5S,5aS,6S,9R)-1-fluoro-12-(((2R,7aS)-2-fluorotetrahydro-1H-pyrrolizin-7a(5H)-yl)methoxy)-5-methyl-5a,6,7,8,9,10-hexahydro-5H-4-oxa-3,10a,11,13,14-pentaaza-6,9-methanonaphtho[1,8-ab]heptalen-2-yl)-3-methylaniline], the results for the IC50 in test [1] and in test [2] were 1.87 µM and 3.53 µM, respectively.

Turning to `C[C@@H]1Oc2nc(-c3cccc4cccc(Cl)c34)c(F)c3nc(OCC45CCN4CC(F)(F)C5)nc(c23)N2C[C@H]3CC[C@H](N3)[C@@H]12` (single isomer, unassigned) [Compound 21], the 50% inhibitory concentration (IC50) amounted to 12.2 µM in test [3], 0.698 µM in test [4] and 7.7 µM in test [2].

For the compound `Cc1c(F)c(N)cc(-c2nc3c4c(nc(OC[C@@]56CCCN5C[C@H](OCc5ccc(-c7ccccc7C#N)cc5)C6)nc4c2F)N2C[C@H]4CC[C@H](N4)[C@H]2[C@H](C)O3)c1C(F)(F)F` [Compound 32, 4′-((((2R,7aS)-7a-((((5S,5aS,6S,9R)-2-(5-amino-4-fluoro-3-methyl-2-(trifluoromethyl)phenyl)-1-fluoro-5-methyl-5a,6,7,8,9,10-hexahydro-5H-4-oxa-3,10a,11,13,14-pentaaza-6,9-methanonaphtho[1,8-ab]heptalen-12-yl)oxy)methyl)hexahydro-1H-pyrrolizin-2-yl)oxy)methyl)-[1,1′-biphenyl]-2-carbonitrile], the IC50 in test [1] was determined as 0.00338 µM; in test [2] it was 0.821 µM.

As to `Cc1cc(N)nc(-c2nc3c4c(nc(OC[C@@]56CCCN5CC5(CC5(F)F)C6)nc4c2F)N2C[C@H]4CC[C@H](N4)[C@H]2CO3)c1C(F)(F)F` (stereo partly drawn) [Compound 42, 6-((5aS,6S,9R)-12-(((7a′S)-2,2-difluorodihydro-1′H,3′H-spiro[cyclopropane-1,2′-pyrrolizin]-7a′(5′H)-yl)methoxy)-1-fluoro-5a,6,7,8,9,10-hexahydro-5H-4-oxa-3,10a,11,13,14-pentaaza[6,9]methanonaphtho[1,8-ab]heptalen-2-yl)-4-methyl-5-(trifluoromethyl)pyridin-2-amine], the 50% inhibitory concentration (IC50) in test [1] came out at 0.122 µM; in test [2], 7.04 µM.

Regarding `C[C@@H]1Oc2nc(-c3cccc(N)c3F)c(F)c3nc(OC[C@@]45CCCN4C[C@H](F)C5)nc(c23)N2C[C@H]3CC[C@H](N3)[C@@H]12` [Compound 12, 2-fluoro-3-((5S,5aS,6S,9R)-1-fluoro-12-(((2R,7aS)-2-fluorotetrahydro-1H-pyrrolizin-7a(5H)-yl)methoxy)-5-methyl-5a,6,7,8,9,10-hexahydro-5H-4-oxa-3,10a,11,13,14-pentaaza-6,9-methanonaphtho[1,8-ab]heptalen-2-yl)aniline], the 50% inhibitory concentration (IC50) was found to be 16.6 µM in test [1] and 13.9 µM in test [2].

Turning to `C[C@@H]1Oc2nc(-c3nc(N)ccc3C(F)(F)F)c(F)c3nc(OC[C@@]45CCCN4C[C@H](F)C5)nc(c23)N2C[C@H]3CC[C@H](N3)[C@@H]12` [Compound 85, 6-((5S,5aS,6S,9R)-1-fluoro-12-(((2R,7aS)-2-fluorotetrahydro-1H-pyrrolizin-7a(5H)-yl)methoxy)-5-methyl-5a,6,7,8,9,10-hexahydro-5H-4-oxa-3,10a,11,13,14-pentaaza-6,9-methanonaphtho[1,8-ab]heptalen-2-yl)-5-(trifluoromethyl)pyridin-2-amine], the IC50 in test [1] is 0.975 µM; in test [2], ≥ 20 µM.

With `C[C@@H]1Oc2nc(-c3cc(N)c(F)c(F)c3C(F)(F)F)c(F)c3nc(OC[C@@]45CCCN4C[C@H](F)C5)nc(c23)N2C[C@H]3CC[C@H](N3)[C@@H]12` [Compound 15, 2,3-difluoro-5-((5S,5aS,6S,9R)-1-fluoro-12-(((2R,7aS)-2-fluorotetrahydro-1H-pyrrolizin-7a(5H)-yl)methoxy)-5-methyl-5a,6,7,8,9,10-hexahydro-5H-4-oxa-3,10a,11,13,14-pentaaza-6,9-methanonaphtho[1,8-ab]heptalen-2-yl)-4-(trifluoromethyl)aniline], the 50% inhibitory concentration (IC50) in test [1] was determined as 0.00157 µM; in test [2], 2.9 µM.

In the case of `C#Cc1c(F)ccc2cccc(-c3nc4c5c(ncnc5c3F)N3C[C@H]5CC[C@H](N5)[C@H]3[C@H](C)O4)c12` [Compound 56, (5S,5aS,6S,9R)-2-(8-ethynyl-7-fluoronaphthalen-1-yl)-1-fluoro-5-methyl-5a,6,7,8,9,10-hexahydro-5H-4-oxa-3,10a,11,13,14-pentaaza-6,9-methanonaphtho[1,8-ab]heptalene], the IC50 in test [1] is 5.74 µM; in test [2], ≥ 20 µM.

Consider `C[C@@H]1Oc2nc(-c3cc(N)c(F)cc3C(F)(F)F)c(F)c3nc(OC[C@]45CCN4CC(F)(F)C5)nc(c23)N2C[C@H]3CC[C@H](N3)[C@@H]12` [Compound 71, 5-((5S,5aS,6S,9R)-12-(((R)-3,3-Difluoro-1-azabicyclo[3.2.0]heptan-5-yl)methoxy)-1-fluoro-5-methyl-5a,6,7,8,9,10-hexahydro-5H-4-oxa-3,10a,11,13,14-pentaaza-6,9-methanonaphtho[1,8-ab]heptalen-2-yl)-2-fluoro-4-(trifluoromethyl)aniline], for which the half-maximal inhibitory concentration (IC50) is 0.132 µM in test [1] and ≥ 20 µM in test [2].

`Cc1cc(N)c(F)c(-c2nc3c4c(nc(OC[C@@]56CCN5CC(F)(F)C6)nc4c2F)N2C[C@H]4CC[C@H](N4)[C@H]2[C@H](C)O3)c1C(F)(F)F` [Compound 92, 3-((5S,5aS,6S,9R)-12-(((S)-3,3-Difluoro-1-azabicyclo[3.2.0]heptan-5-yl)methoxy)-1-fluoro-5-methyl-5a,6,7,8,9,10-hexahydro-5H-4-oxa-3,10a,11,13,14-pentaaza-6,9-methanonaphtho[1,8-ab]heptalen-2-yl)-2-fluoro-5-methyl-4-(trifluoromethyl)aniline]: the IC50 in test [2] was 11.2 µM.

Source of the values: patent publication US12338256B2, “Aza-tetracyclic oxazepine compounds and uses thereof” (Genentech, Inc., priority 2022, dated 2025).
